According to BindingDB's records for PubMed 35671625 (Northwest University, 2022):

Target: Beta-2 adrenergic receptor (Homo sapiens, UniProt P07550)
Assay: Displacement of [3H]-CGP12,177 from immobilized Halo tag-fused beta2 adrenoceptor (unknown origin) expressed in Escherichia coli BL21 (DE3)

Chain of Beta-2 adrenergic receptor (P07550 whole entry, the tested form may be a part): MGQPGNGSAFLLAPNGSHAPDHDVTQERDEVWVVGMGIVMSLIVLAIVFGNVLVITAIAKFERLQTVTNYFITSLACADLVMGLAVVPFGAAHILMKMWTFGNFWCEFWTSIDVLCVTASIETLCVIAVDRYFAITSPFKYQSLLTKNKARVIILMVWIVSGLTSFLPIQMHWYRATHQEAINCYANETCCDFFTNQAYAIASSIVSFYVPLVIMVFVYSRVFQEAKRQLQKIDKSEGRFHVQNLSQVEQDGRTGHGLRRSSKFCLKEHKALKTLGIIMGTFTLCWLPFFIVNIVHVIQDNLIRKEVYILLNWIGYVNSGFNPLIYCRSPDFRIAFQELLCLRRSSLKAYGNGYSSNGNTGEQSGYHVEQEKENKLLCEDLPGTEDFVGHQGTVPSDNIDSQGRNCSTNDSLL

CNC(C)Cc1ccccc1OC (stereo unspecified) [Methoxyphenamine]
Kd: 2.1 nM
